Measurements: patent US6737383B1, “Herbicidal oxadiazolidines” (priority 1999, dated 2004)

Key:
surinam grass = assay: Test B pre/postemergence surinam grass; format: in vivo, Brachiaria decumbens
Procedure, shortened: (§1)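 Herbicidal effect was estimated by eye on a ten-point control scale after plants spent twelve to sixteen days in a greenhouse following soil or foliar treatment. Foliar sprays targeted plants at one to four leaves; all doses were formulated in a non-phytotoxic solvent with surfactant.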

cocklebur = assay: Test B pre/postemergence cocklebur; format: in vivo, Xanthium strumarium
Procedure, shortened: as §1

corn = assay: Test B pre/postemergence corn; format: in vivo, Zea mays
Procedure, shortened: as §1

crabgrass = assay: Test B pre/postemergence crabgrass; format: in vivo, Digitaria sanguinalis
Procedure, shortened: as §1

giant foxtail = assay: Test B pre/postemergence giant foxtail; format: in vivo, Setaria faberii
Procedure, shortened: as §1

morningglory = assay: Test B pre/postemergence morningglory; format: in vivo, Ipomoea hederacea
Procedure, shortened: as §1

pigweed = assay: Test B pre/postemergence pigweed; format: in vivo, Amaranthus retroflexus
Procedure, shortened: as §1

rape = assay: Test B pre/postemergence rape; format: in vivo, Brassica napus
Procedure, shortened: as §1

sugar beet = assay: Test B pre/postemergence sugar beet; format: in vivo, Beta vulgaris
Procedure, shortened: as §1

wheat = assay: Test B pre/postemergence wheat; format: in vivo, Triticum aestivum
Procedure, shortened: as §1

wild oat = assay: Test B pre/postemergence wild oat; format: in vivo, Avena fatua
Procedure, shortened: as §1

purple nutsedge = assay: Test B pre/postemergence purple nutsedge; format: in vivo, Cyperus rotundus
Procedure, shortened: as §1

rice = assay: Test B flood test rice; format: in vivo, Oryza sativa
Procedure, shortened: (§2)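 Plants were grown to the 2-leaf stage before treatment with test chemical, then held in a greenhouse for twelve to sixteen days. Injury was visually rated against untreated controls on a 0–10 scale, where 0 is no effect and 10 is complete control.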

smallflower flatsedge = assay: Test B flood test smallflower flatsedge; format: in vivo, Cyperus difformis; conditions: for S. Flatsedge plant response rating: scale of 0 to 10 where 0 is no effect and 10 is complete control
Procedure, shortened: as §2

duck salad = assay: Test B flood test duck salad; format: in vivo, Heteranthera limosa
Procedure, shortened: as §2

bamyardgrass = assay: Test B flood test barnyardgrass; format: in vivo, Echinochloa crus-galli
Procedure, shortened: as §2

[1] = Postemergence, Rate 125 g/ha, scale of 0 to 10 where 0 is no effect and 10 is complete control
[2] = Preemergence, Rate 62 g/ha, scale 0 to 10 (0 no effect, 10 complete control)
[3] = Preemergence, Rate 125 g/ha, 0 is no effect, 10 is complete control
[4] = Preemergence, Rate 250 g/ha, scale 0 to 10, 0 is no effect, 10 is complete control
[5] = Preemergence, Rate 500 g/ha, scale 0 to 10 (0 no effect, 10 complete control)
[6] = Rate 62 g/ha, Postemergence, scale of 0 to 10 where 0 is no effect and 10 is complete control
[7] = Rate 250 g/ha, Postemergence, scale 0 to 10, 0 is no effect, 10 is complete control
[8] = Rate 500 g/ha, Postemergence, scale 0 to 10
[9] = Postemergence (flood test species), Rate 125 g/ha, scale of 0 to 10 where 0 is no effect and 10 is complete control
[10] = Rate 31 g/ha, Postemergence section (flood test species), scale 0 to 10
[11] = Rate 62 g/ha, Postemergence section, flood test species, scale of 0 to 10 where 0 is no effect and 10 is complete control
[12] = Rate 250 g/ha, Postemergence (flood test), scale 0 to 10, 0 is no effect, 10 is complete control

CC(C)N(C(=O)n1oc(=O)n(C)c1=O)c1ccc(F)cc1 [Compound 138]
B. signalgrass plant response rating (surinam grass; [1]): 7
B. signalgrass plant response rating (surinam grass; [2]): 2
B. signalgrass plant response rating (0 to 10 scale) (surinam grass; [3]): 4
B. signalgrass plant response rating (surinam grass; [4]): 6
B. signalgrass plant response rating (surinam grass; [5]): 9
B. signalgrass plant response rating (surinam grass; [6]): 5
Plant response rating, B. signalgrass (surinam grass; [7]): 8
B. signalgrass plant response rating (surinam grass; Rate 500 g/ha, Postemergence, scale of 0 to 10 where 0 is no effect and 10 is complete control): 8
Cocklebur plant response rating (cocklebur; [1]): 0
Cocklebur plant response rating (cocklebur; [2]): 0
Cocklebur plant response rating (cocklebur; [4]): 0
Cocklebur plant response rating (cocklebur; [5]): 0
Cocklebur plant response rating (cocklebur; [6]): 0
Plant response rating, Cocklebur (cocklebur; [7]): 2
Cocklebur plant response rating (cocklebur; [8]): 3
Corn plant response rating (corn; [1]): 4
Corn plant response rating (corn; [2]): 0
Corn plant response rating (0 to 10 scale) (corn; [3]): 3
Corn plant response rating (corn; [4]): 8
Corn plant response rating (corn; [5]): 9
Corn plant response rating (corn; [6]): 0
Plant response rating, Corn (corn; [7]): 7
Corn plant response rating (corn; [8]): 7
Crabgrass plant response rating (crabgrass; [1]): 9
Crabgrass plant response rating (crabgrass; [2]): 9
Crabgrass plant response rating (0 to 10 scale) (crabgrass; [3]): 9
Crabgrass plant response rating (crabgrass; [4]): 10
Crabgrass plant response rating (crabgrass; [5]): 10
Crabgrass plant response rating (crabgrass; [6]): 8
Plant response rating, Crabgrass (crabgrass; [7]): 9
Crabgrass plant response rating (crabgrass; [8]): 9
Giant foxtail plant response rating (giant foxtail; [1]): 9
Giant foxtail plant response rating (giant foxtail; [2]): 7
Giant foxtail plant response rating (0 to 10 scale) (giant foxtail; [3]): 9
Giant foxtail plant response rating (giant foxtail; [4]): 10
Giant foxtail plant response rating (giant foxtail; [5]): 10
Giant foxtail plant response rating (giant foxtail; [6]): 9
Plant response rating, Giant foxtail (giant foxtail; [7]): 9
Giant foxtail plant response rating (giant foxtail; [8]): 9
Morningglory plant response rating (morningglory; [1]): 5
Morningglory plant response rating (morningglory; [2]): 0
Morningglory plant response rating (0 to 10 scale) (morningglory; [3]): 0
Morningglory plant response rating (morningglory; [4]): 3
Morningglory plant response rating (morningglory; [5]): 4
Morningglory plant response rating (morningglory; [6]): 5
Plant response rating, Morningglory (morningglory; [7]): 6
Morningglory plant response rating (morningglory; [8]): 10
Redroot pigweed plant response rating (pigweed; [1]): 5
Redroot pigweed plant response rating (pigweed; [2]): 9
Redroot pigweed plant response rating (0 to 10 scale) (pigweed; [3]): 10
Redroot pigweed plant response rating (pigweed; [4]): 10
Redroot pigweed plant response rating (pigweed; [5]): 10
Redroot pigweed plant response rating (pigweed; [6]): 3
Plant response rating, Redroot pigweed (pigweed; [7]): 7
Redroot pigweed plant response rating (pigweed; [8]): 8
Rape plant response rating (rape; [1]): 0
Rape plant response rating (rape; [2]): 7
Rape plant response rating (0 to 10 scale) (rape; [3]): 9
Rape plant response rating (rape; [4]): 10
Rape plant response rating (rape; [5]): 10
Rape plant response rating (rape; [6]): 0
Plant response rating, Rape (rape; [7]): 2
Rape plant response rating (rape; [8]): 7
Sugarbeets plant response rating (sugar beet; [1]): 0
Sugarbeets plant response rating (sugar beet; [2]): 9
Sugarbeets plant response rating (0 to 10 scale) (sugar beet; [3]): 10
Sugarbeets plant response rating (sugar beet; [4]): 10
Sugarbeets plant response rating (sugar beet; [5]): 10
Sugarbeets plant response rating (sugar beet; [6]): 0
Plant response rating, Sugarbeets (sugar beet; [7]): 6
Sugarbeets plant response rating (sugar beet; [8]): 8
Wheat plant response rating (wheat; [1]): 8
Wheat plant response rating (wheat; [2]): 3
Wheat plant response rating (0 to 10 scale) (wheat; [3]): 5
Wheat plant response rating (wheat; [4]): 6
Wheat plant response rating (wheat; [5]): 9
Wheat plant response rating (wheat; [6]): 3
Plant response rating, Wheat (wheat; [7]): 8
Wheat plant response rating (wheat; [8]): 8
Wild oats plant response rating (wild oat; [1]): 2
Wild oats plant response rating (wild oat; [2]): 5
Wild oats plant response rating (0 to 10 scale) (wild oat; [3]): 9
Wild oats plant response rating (wild oat; [5]): 10
Wild oats plant response rating (wild oat; [6]): 0
Plant response rating, Wild oats (wild oat; [7]): 3
Wild oats plant response rating (wild oat; [8]): 8
Nutsedge plant response rating (purple nutsedge; [1]): 5
Nutsedge plant response rating (purple nutsedge; [2]): 2
Nutsedge plant response rating (0 to 10 scale) (purple nutsedge; [3]): 5
Nutsedge plant response rating (purple nutsedge; [4]): 7
Nutsedge plant response rating (purple nutsedge; [5]): 7
Nutsedge plant response rating (purple nutsedge; [6]): 4
Plant response rating, Nutsedge (purple nutsedge; [7]): 6
Rice plant response rating (rice; [9]): 7
Rice plant response rating (rice; [10]): 0
Rice plant response rating (rice; [11]): 0
Plant response rating, Rice (rice; [12]): 8
S. Flatsedge plant response rating (smallflower flatsedge; Postemergence (flood test species), Rate 125 g/ha): 0
S. Flatsedge plant response rating (smallflower flatsedge; Rate 62 g/ha, Postemergence section, flood test species): 0
Plant response rating, S. Flatsedge (smallflower flatsedge; [12]): 7
Ducksalad plant response rating (duck salad; [9]): 0
Ducksalad plant response rating (duck salad; [10]): 0
Ducksalad plant response rating (duck salad; [11]): 0
Plant response rating, Ducksalad (duck salad; [12]): 2
Barnyardgrass plant response rating (bamyardgrass; [9]): 0
Barnyardgrass plant response rating (bamyardgrass; [10]): 0
Barnyardgrass plant response rating (bamyardgrass; [11]): 0
Plant response rating, Barnyardgrass (bamyardgrass; [12]): 8
